The text below walks through data of patent EP2905286A1, “Novel diazabicyclohydrocarbon-Pt complexes and the use thereof as pharmaceuticals” (Studiengesellschaft Kohle mbH, priority 2014, dated 2015).

The structures appear in SMILES notation.

For one data set, the system named is A2780. Kind of data set: MTT cell viability assay. Type of data set: cell-based. To be noted: A2780 cells, 72 h incubation. How it is done: (§1) The rate of cell-survival under the action of test compounds was evaluated by an improved MTT assay as previously described for 3-(4,5-dimethylthiazol-2-yl)-2,5-diphenyltetrazolium bromide (MTT, Applichem, Germany) (Mueller, H., Kassack, M. U., Wiese, M. J. Biomol. Screen. 2004, 9, 506-515).
(§2) The assay is based on the ability of viable cells to metabolize yellow MTT to violet formazane crystals that can be detected spectrophotometrically. In brief, A2780 (ECACC, Salisbury, UK) and A2780 CisR cells (established by exposure of A2780 cells to weekly cycles of 2 µmol/L cisplatin over a period of 24 weeks) were seeded at a density of 8,000 cells/well in 96well plates (Corning, Germany) in 90 µL drug-free complete medium. After an incubation period of 24 h at 37 °C under humidified air supplemented with 5% CO2, cells were exposed to dilutions of the test compounds in 100 µL/well. Stock solutions were prepared in a concentration of 10^-2 M in water, and serial dilutions were prepared by using sodium chloride 0.9%. Incubation was ended after 72 h and cell survival was determined by addition of 25 µL/well MTT solution (5 mg/mL in phosphate buffered saline). After an incubation period of 10 min at 37 °C, the medium was carefully removed. The intracellular formazan product was solubilized by adding 75 µl DMSO/well. Absorbance was measured at 544 nm and 690 nm with a FLUOstar microplate-reader (BMG LabTech, Offenburg, Germany). The absorbance of untreated control cells was taken as 100% viability. All tests were performed in triplicate.
(§3) Indicated are mean values ± standard error of the mean. Concentration/inhibition curves were fitted to the data by nonlinear regression analysis using the four parameter logistic equation (GraphPad Prism).

For the next data set, the system named is A2780 CisR cells. The data set can be described thus: MTT cell viability assay, cisplatin resistance model. Type of data set: cell-based. The settings on record: for IC50: A2780 CisR cells, 72 h incubation, MTT; for resistance factor: ratio of IC50 in A2780 CisR cells to IC50 in parental A2780 cells. How it is done: as §1, §2, §3
Values are means ± SEM derived from a representative experiment performed in triplicate. The resistance factor was calculated as the ratio of the IC50 value of the A2780 CisR cells and the IC50 value of the corresponding sensitive parental A2780 cell line.
(Tetrazolium assays rely on reduction of a dye to a coloured formazan, in cell work by metabolically active cells.)

The nature of data set [1]: Solubility observed during preparation. In kind it is physicochemical. The settings on record: for solubility in solvents in general: most or all solvents (ambient temperature, including CH2Cl2 and THF; including DMSO).

For the molecule `O=C1[O][Pt]2([NH][C@@H]3CCCC[C@H]3[NH]2)[O]C1=O` (relative stereo) [oxaliplatin, trans-(R,R)-1,2-diamino-cyclohexane platinum(II)oxalate, reference compound], the IC50 (usually the point on the concentration scale where inhibition reaches its midpoint) in the data set with A2780 was 0.21 µM. In the data set on A2780 CisR cells, half-maximal inhibition (IC50) was put at 0.95 µM and the resistance factor is on record as 4.52.
`C1NCC2CNCC1C2.[Cl][Pt][Cl]` [1a, (C7H14N2)PtCl2]: in data set [1], the “solubility in DMF” value is “dissolve increasingly well”, the “solubility in DMSO” value was “dissolve increasingly well”, the “solubility in solvents in general” value is listed as “insoluble in most solvents” and the solubility in water entry was “dissolve increasingly well”. The molecule also showed an IC50 with A2780 of 4.2 µM. In addition, in the data set on A2780 CisR cells, the IC50 came to 10.6 µM and the resistance factor stood at 2.52.
For `C1NCC2CNCC1C2.CN(C)C=O.[Cl][Pt][Cl]` [1b, (C7H14N2)PtCl2·DMF], in data set [1], the “solubility in DMF” value is reported as “dissolve increasingly well”, the “solubility in DMSO” value is “dissolve increasingly well”, the “solubility in solvents in general” value was “insoluble in most solvents” and the solubility in water result was “dissolve increasingly well”.
Take `C1NCC2CNCC1C2.O=C1[O][Pt][O]C(=O)C12CCC2` [2a, (C7H14N2)Pt{(O2C)2C4H6}]: in data set [1], the “solubility in DMF” value is on record as “poor” and the solubility in water result is recorded as “more soluble in water than the dichloride 1”. The molecule further showed an IC50 with A2780 of 8.84 µM. For the same molecule, in the data set on A2780 CisR cells, 57.1 µM corresponded to half-maximal inhibition (IC50) and the resistance factor stood at 6.46.
Consider `N.N.O=C([O-])C1(C(=O)[O-])CCC1.[Pt+2]` [carboplatin, reference compound], for which the half-inhibitory concentration (IC50) in the data set on A2780 stood at 4.23 µM. Further, in the data set on A2780 CisR cells, the IC50 came to 40.2 µM and the resistance factor turned out to be 9.50.
Regarding `N.N.[Cl][Pt][Cl]` [cisplatin, cis-(NH3)2PtCl2, reference compound], the concentration for half-maximal inhibition (IC50) with A2780 came out at 1.38 µM.
Consider `C1NCC2CNCC1C2.O=C1[O][Pt][O]C1=O` [compound 3, (C7H14N2)Pt(C2O4)], for which the IC50 in the data set with A2780 came to 7.24 µM. Further, in the data set on A2780 CisR cells, the concentration for half-maximal inhibition (IC50) is 35.3 µM and the resistance factor was 4.88.
Consider `[Cl][Pt]1([Cl])[N]2CC3C[N]1CC(C2)C31OCCO1` [compound 4, (Spiro[bispidin-9,2'-[1,3]dioxolane])platinum(II)dichloride], for which the “solubility in solvents in general” value in data set [1] is reported as “insoluble in all solvents, including DMSO”.
In the case of `O=C([O-])C1(C(=O)[O-])CCC1.OC1(O)C2CNCC1CNC2.[Pt+2]` [compound 6, (Bispidin-9,9-diol)platinum(II)(1,1-cyclobutanedicarboxylate)], in data set [1], the “solubility in DMF” value is “dissolves well”, the “solubility in DMSO” value was “dissolves well” and the solubility in water result is “dissolves well”.
